Test results: article PMC6889161, “Inhibitory characteristics of flavonol-3-O-glycosides from Polygonum aviculare L. (common knotgrass) against porcine pancreatic lipase” (Scientific Reports, 2019)
pIC50: −log10 of the molar value.

Key:
pancreatic lipase (PL) = tested on: T1, pancreatic lipase (PL); assay: Fluorescence emission spectroscopy (tryptophan fluorescence quenching of PL); assay type: binding, porcine; details: for kq (bimolecular quenching constant): calculated from KSV with τ0 = 1.59 ns; for KSV (Stern-Volmer quenching constant): excitation 295 nm, 40 µM PL; for KA (binding constant) / n (number of binding sites): double-logarithmic equation
T1 construct: purchased Sigma-Aldrich Co. (St. Louis, MO, USA); host or cells: porcine pancreas (tissue preparation)
Description: The fluorescence spectra of PL in the presence of the sample were measured on a SpectraMax® i3 Multi-Mode Microplate Reader (Molecular Devices) as described previously with slight modification. In brief, aliquots of the sample solution at various concentrations (0−100 µM) were added into 40 µM of PL solution. The mixture was incubated for 30 min at 25 °C and 37 °C, and the fluorescence emission spectra were measured in the range of 315−400 nm upon excitation at 295 nm. The excitation and emission slit widths were set at 9 and 15 nm, respectively. The fluorescence data were analyzed by fitting to the Stern-Volmer equation for analysis of fluorescence quenching[23]:4 F0/F=1+KSV[Q]=1+kqτ0[Q] where F0 and F is the fluorescence intensity in the absence and presence of quencher, respectively, kq is the bimolecular quenching constant, τ0 is the lifetime of fluorescence in the absence of quencher, KSV is the Stern-Volmer quenching constant, and [Q] is the concentration of quencher. KSV was obtained from the slope of a plot of F0/F versus [Q] by linear regression curve fitting, and kq was calculated by KSV, where τ0 is equal to 1.59 ns[31]. The binding constant (KA) and number of binding sites (n) were obtained according to a double-logarithmic equation[32]:5 logF0−F/F=logKA+nlog[Q]

[1] = target: T2, Lipase from porcine pancreas type II (pancreatic lipase) (Sus scrofa, UniProt P00591); assay: Pancreatic lipase inhibition assay (4-MUO substrate, fluorescence); assay type: biochemical; details: for Inhibition mode (type of inhibition): Lineweaver-Burk plots at 50 μM and 100 μM of compound; for pIC50: from RRA of PL at various concentrations, nonlinear regression
T2 construct: purchased Sigma-Aldrich Co. (St. Louis, MO, USA); host or cells: porcine pancreas (tissue preparation)
T2 sequence (P00591 1-450): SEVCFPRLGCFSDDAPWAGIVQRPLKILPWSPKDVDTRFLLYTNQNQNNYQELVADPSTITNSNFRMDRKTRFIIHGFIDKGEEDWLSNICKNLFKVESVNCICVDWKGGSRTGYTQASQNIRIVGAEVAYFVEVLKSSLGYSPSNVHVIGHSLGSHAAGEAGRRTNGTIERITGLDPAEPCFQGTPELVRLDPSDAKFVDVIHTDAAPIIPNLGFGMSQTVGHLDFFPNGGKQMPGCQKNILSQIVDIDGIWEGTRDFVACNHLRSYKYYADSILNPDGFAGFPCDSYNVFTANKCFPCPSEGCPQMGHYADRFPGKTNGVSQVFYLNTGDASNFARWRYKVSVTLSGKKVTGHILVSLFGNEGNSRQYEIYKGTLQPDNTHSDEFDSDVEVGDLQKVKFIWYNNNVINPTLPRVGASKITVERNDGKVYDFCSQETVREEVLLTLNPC
Description: The PL assay using 4-MUO as a substrate was conducted as described previously with slight modification[28],[29]. Lipase from porcine pancreas type II (i.e., pancreatic lipase) was dissolved in 50 mM Tris-HCl buffer (pH 8.0) to give 10 mg/mL, and centrifuged at 5,000 g for 10 min to remove insoluble material before the enzyme assay. Then, 50 µL of 0.5 mM 4-MUO solution dissolved in the above buffer and 100 µL of the sample solution dissolved in methanol (i.e., the inhibitor solution) were mixed in 96-well microplate to form the reaction system. The enzymatic hydrolysis was initiated by adding 50 µL of the PL solution to the reaction system (final 250 units/mL) at 37 °C. […] The inhibitory activities against PL were calculated for comparison with each other, as follows:1 Inhibition(%)=A0−AS/A0×100 where A0 is the relative fluorescence unit after the reaction for 30 min in the absence of sample (i.e., only methanol) and AS is the fluorescence unit in the presence of sample.
To determine the IC50, the RRA of PL in the presence of the sample at various concentrations was evaluated. The reaction of PL was measured by the same procedure described above, and the RRA was calculated from the following equation:2 Relativeresidualactivity(%)=vS/v0×100 where ν0 is the initial velocity of the reaction in the absence of sample (i.e., only methanol) and νS is the initial velocity in the presence of sample. […] The type of inhibition was elucidated by evaluating the changes of kinetic parameters from Lineweaver-Burk plot as follows:3 1/v=Km/Vmax1/[S]+1/Vmax where [S] is the concentration of substrate, v is the initial velocity of the reaction, Vmax is the maximum initial velocity when substrate approaches infinite concentration, and Km is the dissociation constant of the enzyme-substrate complex (i.e., the Michaelis constant).

C[C@@H]1O[C@@H](Oc2c(-c3ccc(O)c(O)c3)oc3cc(O)cc(O)c3c2=O)[C@H](O)[C@H](O)[C@H]1O [Quercitrin, quercetin-3-O-α-L-rhamnopyranoside]
kq (bimolecular quenching constant) (pancreatic lipase (PL); 25 °C): 8.05 10^12 M^−1s^−1
KSV (Stern-Volmer quenching constant) (pancreatic lipase (PL); 25 °C): 1.28 10^4 M^−1
kq (bimolecular quenching constant) (pancreatic lipase (PL); 37 °C): 8.30 10^12 M^−1s^−1
KA (binding constant) (pancreatic lipase (PL); 37 °C): 1.00 10^4 M^−1
n (number of binding sites) (pancreatic lipase (PL); 37 °C): 0.9760
KSV (Stern-Volmer quenching constant) (pancreatic lipase (PL); 37 °C): 1.32 10^4 M^−1
KA (binding constant) (pancreatic lipase (PL)): 10000 M⁻¹
Inhibition mode (type of inhibition) [1]: non-competitive or mixed-type inhibition
pIC50 [1]: 4.00

O=c1c(O)c(-c2ccc(O)cc2)oc2cc(O)cc(O)c12 [Kaempferol]
kq (bimolecular quenching constant) (pancreatic lipase (PL); 25 °C): 7.67 10^12 M^−1s^−1
KSV (Stern-Volmer quenching constant) (pancreatic lipase (PL); 25 °C): 1.22 10^4 M^−1
kq (bimolecular quenching constant) (pancreatic lipase (PL); 37 °C): 6.48 10^12 M^−1s^−1
KA (binding constant) (pancreatic lipase (PL); 37 °C): 2.07 10^4 M^−1
n (number of binding sites) (pancreatic lipase (PL); 37 °C): 1.1103
KSV (Stern-Volmer quenching constant) (pancreatic lipase (PL); 37 °C): 1.03 10^4 M^−1
KA (binding constant) (pancreatic lipase (PL)): 20700 M⁻¹
Inhibition mode (type of inhibition) [1]: competitive inhibition
pIC50 [1]: 4.10

O=c1c(O[C@@H]2O[C@@H](CO)[C@H](O)[C@H]2O)c(-c2ccc(O)c(O)c2)oc2cc(O)cc(O)c12 [Avicularin, quercetin-3-O-α-L-arabinofuranoside]
kq (bimolecular quenching constant) (pancreatic lipase (PL); 25 °C): 3.52 10^12 M^−1s^−1
KSV (Stern-Volmer quenching constant) (pancreatic lipase (PL); 25 °C): 0.56 10^4 M^−1
kq (bimolecular quenching constant) (pancreatic lipase (PL); 37 °C): 3.71 10^12 M^−1s^−1
KA (binding constant) (pancreatic lipase (PL); 37 °C): 0.94 10^4 M^−1
n (number of binding sites) (pancreatic lipase (PL); 37 °C): 1.1119
KSV (Stern-Volmer quenching constant) (pancreatic lipase (PL); 37 °C): 0.59 10^4 M^−1
KA (binding constant) (pancreatic lipase (PL)): 9400 M⁻¹
Inhibition mode (type of inhibition) [1]: non-competitive or mixed-type inhibition
pIC50 [1]: 3.85

myricetin-3-O-α-L-rhamnopyranoside [Myricitrin]
kq (bimolecular quenching constant) (pancreatic lipase (PL); 25 °C): 7.48 10^12 M^−1s^−1
KSV (Stern-Volmer quenching constant) (pancreatic lipase (PL); 25 °C): 1.19 10^4 M^−1
kq (bimolecular quenching constant) (pancreatic lipase (PL); 37 °C): 7.74 10^12 M^−1s^−1
KA (binding constant) (pancreatic lipase (PL); 37 °C): 1.45 10^4 M^−1
n (number of binding sites) (pancreatic lipase (PL); 37 °C): 1.0228
KSV (Stern-Volmer quenching constant) (pancreatic lipase (PL); 37 °C): 1.23 10^4 M^−1
KA (binding constant) (pancreatic lipase (PL)): 14500 M⁻¹
Inhibition mode (type of inhibition) [1]: non-competitive or mixed-type inhibition

O=c1c(O)c(-c2ccc(O)c(O)c2)oc2cc(O)cc(O)c12 [Quercetin]
kq (bimolecular quenching constant) (pancreatic lipase (PL); 25 °C): 6.29 10^12 M^−1s^−1
KSV (Stern-Volmer quenching constant) (pancreatic lipase (PL); 25 °C): 1.00 10^4 M^−1
kq (bimolecular quenching constant) (pancreatic lipase (PL); 37 °C): 5.91 10^12 M^−1s^−1
KA (binding constant) (pancreatic lipase (PL); 37 °C): 3.57 10^4 M^−1
n (number of binding sites) (pancreatic lipase (PL); 37 °C): 1.1471
KSV (Stern-Volmer quenching constant) (pancreatic lipase (PL); 37 °C): 0.94 10^4 M^−1
KA (binding constant) (pancreatic lipase (PL)): 35700 M⁻¹
Inhibition mode (type of inhibition) [1]: competitive inhibition
